Results from ChEMBL document CHEMBL5360603, “Diselenide Covalent Allosteric Inhibitors of Glutaminase with Strong In Vivo Anticancer Activity” (ACS Med Chem Lett, 2023).
Active and inactive are the calls of the source. The calls are words filed in the database; no cut-off is given here. Starred links: 1 amine or outer side, 2 acyl side, 3 side chain; linkers in the order of their positions; H or OH if unused. Positions of bridges follow the written chain, without caps; N, C: chain ends. Non-standard residues stand in square brackets, D forms with d. Residues, ends and D or L forms follow the SMILES beside them. Chains are numbered I, II in the order given. Actinocin(9to1) = Cc1c2oc3c(C)ccc(C(=O)[*:1])c3nc-2c(C(=O)[*:2])c(N)c1=O; NMeV = CN[C@H](C(=O)O)C(C)C; Sar = CNCC(=O)O

Legend:
[1] = Negative allosteric modulator activity at Escherichia coli GDH incubated for 1.5 hrs in presence of glutamate and NADP by EZMTT assay
[2] = molecular target: T1, Glutaminase kidney isoform, mitochondrial (Homo sapiens, UniProt O94925); assay: Negative allosteric modulator activity at human wildtype KGA incubated for 5 hrs in presence of GDH and NADP by EZMTT assay
T1 sequence (O94925 whole entry): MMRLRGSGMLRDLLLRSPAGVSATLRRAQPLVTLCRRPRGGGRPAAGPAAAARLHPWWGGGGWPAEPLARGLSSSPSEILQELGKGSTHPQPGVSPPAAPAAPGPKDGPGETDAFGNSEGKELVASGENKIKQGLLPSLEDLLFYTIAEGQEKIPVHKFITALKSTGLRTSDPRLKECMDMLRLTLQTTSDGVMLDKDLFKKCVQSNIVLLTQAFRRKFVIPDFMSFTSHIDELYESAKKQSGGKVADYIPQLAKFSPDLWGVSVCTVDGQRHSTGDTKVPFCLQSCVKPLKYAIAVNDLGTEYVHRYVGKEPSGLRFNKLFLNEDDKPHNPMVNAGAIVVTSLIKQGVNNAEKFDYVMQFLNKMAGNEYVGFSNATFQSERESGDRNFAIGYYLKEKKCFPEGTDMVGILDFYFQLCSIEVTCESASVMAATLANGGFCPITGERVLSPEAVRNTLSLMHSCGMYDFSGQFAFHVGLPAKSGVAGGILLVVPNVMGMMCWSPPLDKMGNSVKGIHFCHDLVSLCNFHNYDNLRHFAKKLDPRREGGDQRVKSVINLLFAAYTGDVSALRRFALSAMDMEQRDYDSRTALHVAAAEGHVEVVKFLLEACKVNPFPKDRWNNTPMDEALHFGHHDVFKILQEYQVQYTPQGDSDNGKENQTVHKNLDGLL

[3] = molecular target: Thioredoxin reductase (Escherichia coli (strain K12), UniProt P0A9P4); assay: Negative allosteric modulator activity at Escherichia coli TrxR using DTNB as substrate preincubated for 20 mins followed by substrate addition in presence of NADPH and measured after 60 mins
Sequence of Thioredoxin reductase (P0A9P4 whole entry): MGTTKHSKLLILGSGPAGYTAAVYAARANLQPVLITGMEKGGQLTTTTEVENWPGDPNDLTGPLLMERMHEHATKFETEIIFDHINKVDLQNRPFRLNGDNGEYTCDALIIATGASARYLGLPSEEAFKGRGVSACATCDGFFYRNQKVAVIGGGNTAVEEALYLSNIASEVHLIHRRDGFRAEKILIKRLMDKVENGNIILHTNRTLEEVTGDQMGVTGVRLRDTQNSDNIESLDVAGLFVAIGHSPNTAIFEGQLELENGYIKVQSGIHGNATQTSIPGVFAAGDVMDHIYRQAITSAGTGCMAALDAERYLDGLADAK

[4] = system: H22; assay: Antiproliferative activity against mouse H22 cells assessed as cell growth inhibition incubated for 5 days by EZMTT assay; assay type: functional, cell-based; conditions: H22, 120 h
[5] = system: A549; assay: Antiproliferative activity against human A549 cells assessed as cell growth inhibition incubated for 5 days by EZMTT assay; assay type: functional, cell-based; conditions: A549, 120 h
[6] = system: U-251; assay: Antiproliferative activity against human U-251 cells assessed as cell growth inhibition incubated for 5 days by EZMTT assay; assay type: functional, cell-based; conditions: U-251, 120 h
[7] = system: ACHN; assay: Antiproliferative activity against human ACHN cells assessed as cell growth inhibition incubated for 5 days by EZMTT assay; assay type: functional, cell-based; conditions: 120 h
[8] = system: CAKI-1; assay: Antiproliferative activity against human CAKI-1 cells assessed as cell growth inhibition incubated for 5 days by EZMTT assay; assay type: functional, cell-based; conditions: CAKI-1, 120 h
[9] = system: HepG2; assay: Antiproliferative activity against human HepG2 cells assessed as cell growth inhibition incubated for 5 days by EZMTT assay; assay type: functional, cell-based; conditions: HepG2, 120 h
[10] = system: HGC-27; assay: Antiproliferative activity against human HGC-27 cells assessed as cell growth inhibition incubated for 5 days by EZMTT assay; assay type: functional, cell-based; conditions: HGC-27, 120 h
[11] = system: KATO III stomach cancer cell line; assay: Antiproliferative activity against human KATO III stomach cancer cell line assessed as cell growth inhibition incubated for 5 days by EZMTT assay; assay type: functional, cell-based; conditions: 120 h
[12] = molecular target: T1, Glutaminase kidney isoform, mitochondrial; assay: Negative allosteric modulator activity at human wildtype KGA using glutamine as substrate preincubated for 1 hr followed by substrate addition in presence of GDH and NADP and measured after 4 hrs by EZMTT reagent based dilution assay
[13] = Negative allosteric modulator activity at human KGA K320A mutant using glutamine as substrate preincubated for 1 hr followed by substrate addition in presence of GDH and NADP and measured after 4 hrs by EZMTT reagent based dilution assay
[14] = system: H22; assay: Antitumor activity against mouse H22 cells xenografted in ICR mouse assessed as reduction in tumor size at 10 mg/kg,SC for 10 consecutive days; assay type: functional; design: scale not given: the % may be the effect or the level left
[15] = Toxicity in ICR mouse xenografted with mouse H22 cells assessed as body weight loss at 10 mg/kg,SC for 10 consecutive days; assay type: organism-based; conditions: in vivo
[16] = system: H22; assay: Antitumor activity against mouse H22 cells xenografted in ICR mouse assessed as increase in survival time at SC administration for 10 consecutive days and measured after 32 days; assay type: functional; conditions: time 32.0 day
[17] = Toxicity in ICR mouse xenografted with mouse H22 cells assessed as change in body weight at 10 mg/kg,SC for 10 consecutive days and measured after 32 days; assay type: organism-based; conditions: in vivo, 768 h, time 32 day
[18] = Toxicity in ICR mouse xenografted with mouse H22 cells assessed as change in body weight at 30 mg/kg,SC for 10 consecutive days and measured after 32 days; assay type: organism-based; conditions: in vivo, 768 h, time 32 day
[19] = molecular target: T2, Glutaminase kidney isoform, mitochondrial (Homo sapiens) (UniProt O94925); assay: Binding affinity to human biotinylated wildtype KGA at 0.01 to 1 uM by biolayer interferometry assay; conditions: filed as negative allosteric modulator, dose 0.01-1 µM
T2 sequence (whole entry): T1 sequence (O94925 whole entry)

[20] = species on record: Homo sapiens; assay: Binding affinity to human biotinylated KGA K320A mutant at 0.01 to 1 uM by biolayer interferometry assay; conditions: dose 0.01-1 µM
[21] = Toxicity in ICR mouse xenografted with mouse H22 cells assessed as change in body weight at 1 to 10 mg/kg,SC for 10 consecutive days and measured after 32 days; assay type: organism-based; conditions: in vivo, 768 h, dose 1-10 mg/kg, time 32 day
[22] = system: H22; assay: Antitumor activity against mouse H22 cells xenografted in ICR mouse assessed as tumor growth inhibition at 0.25 mg/kg,SC for 10 consecutive days; assay type: functional, organism-based
[23] = Toxicity in ICR mouse xenografted with mouse H22 cells assessed as body weight loss at 0.25 mg/kg,SC for 10 consecutive days; assay type: organism-based; conditions: in vivo
[24] = species on record: Homo sapiens; assay: Binding affinity to human biotinylated KGA K320A mutant at 1 to 10 uM by biolayer interferometry assay; conditions: dose 1-10 µM
[25] = system: H22; assay: Antitumor activity against mouse H22 cells xenografted in ICR mouse assessed as increase in survival time at 10 mg/kg,SC administration for 10 consecutive days and measured after 32 days; assay type: functional, organism-based; conditions: time 32.0 day

## O=C1c2ccccc2C(=O)N1CC[Se][Se]CCN1C(=O)c2ccccc2C1=O
[1]
  IC50: > 10 µM
[2]
  IC50: 0.4 µM
[3]
  IC50: 0.7 µM
[4]
  IC50: 0.83 µM
[5]
  IC50: 1.6 µM
[6]
  IC50: 1.6 µM
[7]
  IC50: 2.1 µM
[8]
  IC50: 3.3 µM
[9]
  IC50: 1.9 µM
[10]
  IC50: 1.2 µM
[11]
  IC50: 1.65 µM
[12]
  IC50: 2.1 µM
[13]
  IC50: > 10 µM
[14]
  Activity: ~70%
[15]
  Activity: Non-Toxic
[16]
  Activity: Dose-Dependent Effect
[17]
  Activity: Toxic
[18]
  Activity: Toxic

## Cc1nn(CCSSCCn2nc(C)c(Cl)c2C)c(C)c1Cl
[1]
  IC50: > 10 µM
[2]
  IC50: > 10 µM
[3]
  IC50: > 10 µM
[4]
  IC50: > 10 µM
[5]
  IC50: > 10 µM

## O=C1c2ccccc2C(=O)N1CCSSCCN1C(=O)c2ccccc2C1=O
[1]
  IC50: > 10 µM
[2]
  IC50: > 10 µM
[3]
  IC50: > 10 µM
[4]
  IC50: > 10 µM
[5]
  IC50: > 10 µM

## Nc1nnc(CCCCCCc2nnc(N)[se]2)[se]1
[1]
  IC50: > 10 µM
[2]
  IC50: > 10 µM
[3]
  IC50: > 10 µM
[4]
  IC50: > 10 µM
[5]
  IC50: > 10 µM

## Cc1nn(CC[Se][Se]CCn2nc(C)c3ccccc32)c2ccccc12
[1]
  IC50: > 10 µM
[2]
  IC50: 0.2 µM
[3]
  IC50: 0.5 µM
[4]
  IC50: 3.5 µM
[5]
  IC50: 0.75 µM
[12]
  IC50: 2.2 µM
[13]
  IC50: > 10 µM
[19]
  Activity: Active
[20]
  Activity: inactive
[14]
  Activity: ~70%
[15]
  Activity: Non-Toxic
[16]
  Activity: Dose-Dependent Effect
[21]
  Activity: Toxic

## Nc1nnc(CC[Se][Se]CCc2nnc(N)[se]2)[se]1
[1]
  IC50: > 10 µM
[2]
  IC50: 3 µM
[3]
  IC50: 4 µM
[4]
  IC50: 2.6 µM
[5]
  IC50: 8 µM

## c1ccc(CC[Se][Se]CCc2ccccc2)cc1
[1]
  IC50: > 10 µM
[2]
  IC50: > 10 µM
[3]
  IC50: 13 µM
[4]
  IC50: 5.6 µM
[5]
  IC50: > 10 µM

## Cc1c2oc3c(C)ccc(C(=O)N[C@@H]4C(=O)N[C@H](C(C)C)C(=O)N5CCC[C@H]5C(=O)N(C)CC(=O)N(C)[C@@H](C(C)C)C(=O)O[C@@H]4C)c3nc-2c(C(=O)N[C@@H]2C(=O)N[C@H](C(C)C)C(=O)N3CCC[C@H]3C(=O)N(C)CC(=O)N(C)[C@@H](C(C)C)C(=O)O[C@@H]2C)c(N)c1=O [DACTINOMYCIN] (I: T[dV]P[Sar][NMeV] / II: T[dV]P[Sar][NMeV]; ester I:1-I:C, II:1-II:C; linker I:N-II:N via Actinocin(9to1))
[22]
  Activity: Active
[23]
  Activity: Toxic

## Nc1nnc(CC[Se][Se]CCc2nnc(N)s2)s1
[1]
  IC50: > 10 µM
[2]
  IC50: 4 µM
[3]
  IC50: 3 µM
[4]
  IC50: 2.6 µM
[5]
  IC50: 9 µM

## O=c1[nH]n(CC[Se][Se]CCn2[nH]c(=O)c3ccccc3c2=O)c(=O)c2ccccc12
[1]
  IC50: > 10 µM
[2]
  IC50: 1 µM
[3]
  IC50: 2.1 µM
[4]
  IC50: > 10 µM
[5]
  IC50: > 10 µM

## O=C(Cc1cccc(OC(F)(F)F)c1)Nc1ccc(CCCCc2nnc(NC(=O)Cc3ccccn3)s2)nn1
[1]
  IC50: > 10 µM
[3]
  IC50: > 10 µM
[4]
  IC50: > 10 µM
[13]
  IC50: 0.3 µM
[24]
  Activity: inactive
[25]
  Activity: inactive

## Cc1nn(CCC[Se]CCn2nc(C)c(Cl)c2C)c(C)c1Cl
[1]
  IC50: > 10 µM
[2]
  IC50: > 10 µM
[3]
  IC50: > 10 µM
[4]
  IC50: 8 µM
[5]
  IC50: > 10 µM

## CCCCCCCC[Se][Se]CCCCCCCC
[1]
  IC50: > 10 µM
[2]
  IC50: > 10 µM
[3]
  IC50: > 10 µM
[4]
  IC50: > 10 µM
[5]
  IC50: > 10 µM

## Nc1nnc(CCCCCCc2nnc(N)s2)s1
[1]
  IC50: > 10 µM
[2]
  IC50: > 10 µM
[3]
  IC50: > 10 µM
[4]
  IC50: > 10 µM
[5]
  IC50: > 10 µM

## Cc1cc(C)n(CC[Se][Se]CCn2nc(C)cc2C)n1
[1]
  IC50: > 10 µM
[2]
  IC50: 3.6 µM
[3]
  IC50: 3.7 µM
[4]
  IC50: 2.8 µM
[5]
  IC50: 1.7 µM

## Cc1nn(CC[Se][Se]CCn2nc(C)c(Cl)c2C)c(C)c1Cl
[1]
  IC50: > 10 µM
[2]
  IC50: 0.54 µM
[3]
  IC50: 0.7 µM
[4]
  IC50: 4 µM
[5]
  IC50: 3 µM

## Cc1nn(CCCCCCn2nc(C)c(Cl)c2C)c(C)c1Cl
[1]
  IC50: > 10 µM
[2]
  IC50: > 10 µM
[3]
  IC50: > 10 µM
[4]
  IC50: > 10 µM
[5]
  IC50: > 10 µM

## O=[N+]([O-])c1ccc2c(cnn2CC[Se][Se]CCn2ncc3cc([N+](=O)[O-])ccc32)c1
[1]
  IC50: > 10 µM
[2]
  IC50: 0.4 µM
[3]
  IC50: 0.7 µM
[4]
  IC50: 8 µM
[5]
  IC50: 0.4 µM

## Cc1cc(C)n(CCSSCCn2nc(C)cc2C)n1
[1]
  IC50: > 10 µM
[2]
  IC50: > 10 µM
[3]
  IC50: > 10 µM
[4]
  IC50: > 10 µM
[5]
  IC50: > 10 µM
